According to ChEMBL document CHEMBL5154884, “Discovery of a Novel Src Homology-2 Domain Containing Protein Tyrosine Phosphatase-2 (SHP2) and Cyclin-Dependent Kinase 4 (CDK4) Dual Inhibitor for the Treatment of Triple-Negative Breast Cancer” (J Med Chem, 2022):

Key:
[1] = Terminal half life in ICR mouse at 10 mg/kg, po measured upto 24 hrs by LC-MS/MS analysis; type: ADME, organism-based; details: in vivo, read-out: beta t1/2 (converted)
EMT6 = assay: Antitumor activity against mouse EMT6 cells implanted in BALB/c mouse syngenic model assessed as tumor growth inhibition at 40 mg/kg, po qd and measured after 18 days relative to control; type: functional; details: EMT6, 432 h, time 18 day, read-out: TGI
CDK12/Cyclin K = CDK12/Cyclin K (Homo sapiens, UniProt Q9NYV4); assay: Inhibition of recombinant N-terminal GST/His6-fusion tagged human CDK12/Cyclin K expressed in Sf9 insect cells incubated for 20 mins followed by [33P]gamma-ATP addition and measured after 2 hrs by radiometric HotSpot Kinase assay
Chain of CDK12/Cyclin K (O75909 whole entry, the tested form may be a part): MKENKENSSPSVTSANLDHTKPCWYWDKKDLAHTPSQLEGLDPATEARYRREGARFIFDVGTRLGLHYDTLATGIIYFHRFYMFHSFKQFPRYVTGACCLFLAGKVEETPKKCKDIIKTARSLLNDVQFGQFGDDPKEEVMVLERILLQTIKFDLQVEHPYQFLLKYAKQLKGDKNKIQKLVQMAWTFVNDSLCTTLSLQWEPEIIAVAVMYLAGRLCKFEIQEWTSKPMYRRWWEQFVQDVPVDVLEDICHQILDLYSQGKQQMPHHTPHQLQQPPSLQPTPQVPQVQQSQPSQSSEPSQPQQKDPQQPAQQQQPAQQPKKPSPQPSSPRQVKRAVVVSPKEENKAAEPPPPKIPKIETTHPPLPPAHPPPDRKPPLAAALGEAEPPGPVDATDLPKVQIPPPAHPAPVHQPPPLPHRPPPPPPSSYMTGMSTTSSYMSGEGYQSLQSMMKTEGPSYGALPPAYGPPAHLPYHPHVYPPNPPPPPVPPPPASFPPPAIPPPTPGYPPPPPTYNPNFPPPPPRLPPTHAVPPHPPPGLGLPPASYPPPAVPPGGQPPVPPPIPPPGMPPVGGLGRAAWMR
Chain of CDK12/Cyclin K (Q9NYV4 whole entry, the tested form may be a part): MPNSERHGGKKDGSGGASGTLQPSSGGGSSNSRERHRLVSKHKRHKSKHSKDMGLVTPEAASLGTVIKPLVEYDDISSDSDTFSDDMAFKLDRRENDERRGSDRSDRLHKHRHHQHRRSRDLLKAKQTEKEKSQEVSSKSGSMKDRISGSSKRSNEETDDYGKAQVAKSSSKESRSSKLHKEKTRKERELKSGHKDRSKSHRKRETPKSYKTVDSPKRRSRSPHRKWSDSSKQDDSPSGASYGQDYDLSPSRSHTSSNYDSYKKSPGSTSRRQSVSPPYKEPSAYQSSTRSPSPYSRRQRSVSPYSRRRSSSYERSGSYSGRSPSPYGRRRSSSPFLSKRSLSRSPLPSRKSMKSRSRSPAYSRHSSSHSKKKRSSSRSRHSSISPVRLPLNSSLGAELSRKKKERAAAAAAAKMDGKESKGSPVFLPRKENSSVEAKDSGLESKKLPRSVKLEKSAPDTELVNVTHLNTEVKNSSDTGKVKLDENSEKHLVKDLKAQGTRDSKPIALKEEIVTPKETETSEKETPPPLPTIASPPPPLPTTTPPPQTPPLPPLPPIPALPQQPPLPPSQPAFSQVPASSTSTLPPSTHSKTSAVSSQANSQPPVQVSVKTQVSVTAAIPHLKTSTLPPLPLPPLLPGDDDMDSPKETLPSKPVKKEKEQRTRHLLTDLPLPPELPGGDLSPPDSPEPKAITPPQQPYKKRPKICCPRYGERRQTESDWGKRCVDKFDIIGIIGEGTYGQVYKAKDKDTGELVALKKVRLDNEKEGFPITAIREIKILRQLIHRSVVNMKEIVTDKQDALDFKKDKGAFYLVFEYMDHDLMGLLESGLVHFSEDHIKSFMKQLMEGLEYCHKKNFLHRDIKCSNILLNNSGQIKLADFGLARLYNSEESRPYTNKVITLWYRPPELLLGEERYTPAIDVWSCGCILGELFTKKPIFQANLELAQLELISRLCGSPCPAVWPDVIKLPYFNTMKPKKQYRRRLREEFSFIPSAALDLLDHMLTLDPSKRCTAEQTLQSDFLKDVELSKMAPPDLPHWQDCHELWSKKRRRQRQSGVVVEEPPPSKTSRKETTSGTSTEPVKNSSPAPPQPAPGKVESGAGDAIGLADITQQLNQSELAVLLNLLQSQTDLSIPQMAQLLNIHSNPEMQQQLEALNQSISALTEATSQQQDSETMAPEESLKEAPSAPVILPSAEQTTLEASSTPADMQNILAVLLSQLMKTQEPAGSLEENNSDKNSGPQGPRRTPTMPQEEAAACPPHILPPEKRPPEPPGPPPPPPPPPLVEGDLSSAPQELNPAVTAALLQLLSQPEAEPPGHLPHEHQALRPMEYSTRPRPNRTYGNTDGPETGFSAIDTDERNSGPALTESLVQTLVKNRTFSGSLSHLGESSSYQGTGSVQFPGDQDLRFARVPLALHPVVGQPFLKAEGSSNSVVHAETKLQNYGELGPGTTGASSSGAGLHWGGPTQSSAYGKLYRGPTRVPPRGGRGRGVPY

SMILES: Cc1nc2c(F)cc(-c3nc(Nc4nccc(Sc5cnc(N6CCC7(CC6)CO[C@@H](C)[C@H]7N)cn5)c4Cl)ncc3F)cc2n1C(C)C
- half-life [1]: 2.94 h
- inhibition in vivo at 40 mg/kg (EMT6): 80%
- IC50 (CDK12/Cyclin K): 697 nM
